{"source": "patent US11298422B2", "about": "“Treating tumors with TTFields and an aurora kinase inhibitor” (Novocure Limited, priority 2018, dated 2022)", "key": {"U87-MG^shp53 [1]": {"system": "U87-MG^shp53", "assay": "Flow cytometry analysis of DNA contents (ploidy), U87-MG^shp53", "assay_type": "cell-based, human", "conditions": "72 h", "description": "For cell cycle analysis, cells were removed with Trypsin immediately after 72 h treatment, washed twice with ice-cold PBS with 1% FBS and fixed with 70% ice-cold ethanol for 30 min. After fixation, cells were washed twice with ice-cold PBS with 1% FBS, pelleted and incubated in PBS containing 10 μg/ml RNase and 7.5 μg/ml7-AAD (Sigma-Aldrich) at 37° C. for 30 min. Cell cycle distribution was then quantified using the EC800 flow cytometer (Sony Biotechnology, Japan).\nFIGS. 3A-D and 4A-E show U87-MG and U87-MG^shp53 FACS analysis of DNA contents following treatment with TTFields and AZD1152. More specifically, FIGS. 3A-D depict increased polyploidy in U87-MG cells following the combined treatment of TTFields (200 kHz, 1.6 V/cm RMS) at various AZD1152 concentrations; and FIGS. 4A-E depict increased polyploidy in U87-MG^shp53 cells following the combined treatment of TTFields (200 kHz, 1.6 V/cm RMS) at various AZD1152 concentrations.\nTables 1 and 2 depict, for U87-MG and U87-MG^shp53 respectively, numeric data corresponding to FIGS. 3 and 4. The columns in tables 1 and 2 represent the DNA copy number (e.g., 2n is the normal number of chromosomes (23 pairs=46), 4n is twice the number of chromosomes, etc.)."}, "U87-MG^shp53 [2]": {"system": "U87-MG^shp53", "assay": "Cytotoxicity assay (cell count at end of treatment), U87-MG^shp53", "assay_type": "cell-based, human", "conditions": "for cytotoxic effect, Observed TTFields + AZD1152 / cytotoxic effect, AZD1152: 72 h; for cytotoxic effect, Observed TTFields + AZD1152: percentage of control; for cytotoxic effect, Expected: expected value for the combination; for cytotoxic effect, AZD1152: number of cells as percentage of control", "description": "The effects of the combined treatment of TTFields and the Aurora B kinase inhibitor AZD1152 was tested in 3 different glioma cell lines: U87-MG, U87-MG^shp53 and U-251. TTFields ([…], 200 kHz) were applied for 72 hours using the Inovitro system. AZD1152 was added to the media in concentrations of up to 100 nmol/L. Cell counts, cell cycle, and clonogenic potential were determined at the end of treatment. Formation of multinuclear cells was determined using microscopic images of cells stained with crystal violet.\nThe effects of the combined treatment of TTFields and AZD1152 was tested using the following human glioma cell lines: U87-MG (ATCC), U-251 (ECACC) and U87-mG^shp53 (provided by Dr. Achim Temme). All cells were grown in a humidified incubator supplied with 5% CO2. Cells were maintained in EMEM, supplemented with 10% FBS, 2 mmol/L glutamine, Pen-Strep solution (100 units/ml Penicillin and 0.1 mg/ml Streptomycin), 1 mmol/L sodium pyruvate and 1% NEAA. U87-MG^shp53 cells were maintained under selection with […] geneticin. AZD1152 was obtained from Sigma, Israel.\nTTFields (1.6 V/cm RMS, 200 kHz) were applied for 72 hours using the Inovitro system. At the end of treatment, inhibition of tumor cell growth was analyzed quantitatively based on cell count. Clonogenic survival of U87-MG, U87-MG^shp53 and U-251 was tested by plating triplicates of 300 cells/dish in 6 wells dishes. After 2-3 weeks, cells were stained with crystal violet and the number of clones was quantified. Overall effect was calculated by multiplying the percentage of surviving cells at the end of treatment with the percentage of colonies formed vs. control."}, "[3]": {"conditions": "U87-MGShp53, AZD1152 12.5 nM + TTFIELDS 200 kHz 1.6 V/cm RMS"}, "[4]": {"conditions": "U87-MGShp53, AZD1152 12.5 nM, CONTROL (no TTFields)"}, "[5]": {"conditions": "U87-MGShp53, AZD1152 25 nM + TTFIELDS 200 kHz 1.6 V/cm RMS"}, "[6]": {"conditions": "U87-MGShp53, AZD1152 25 nM, CONTROL (no TTFields)"}, "[7]": {"conditions": "U87-MGShp53, AZD1152 50 nM + TTFIELDS 200 kHz 1.6 V/cm RMS"}, "[8]": {"conditions": "U87-MGShp53, AZD1152 50 nM, CONTROL (no TTFields)"}}, "data": [{"compound": "CCN(CCCOc1ccc2c(Nc3cc(CC(=O)Nc4cccc(F)c4)n[nH]3)ncnc2c1)CCOP(=O)(O)O", "note": "[AZD1152, Barasertib]", "values": [{"measurement": "DNA copy number 2n", "setting": "U87-MG^shp53 [1]; [3]", "value": 44, "unit": "%"}, {"measurement": "DNA copy number 4n", "setting": "U87-MG^shp53 [1]; [3]", "value": 34, "unit": "%"}, {"measurement": "DNA copy number 8n", "setting": "U87-MG^shp53 [1]; [3]", "value": 19, "unit": "%"}, {"measurement": "DNA copy number 2n", "setting": "U87-MG^shp53 [1]; [4]", "value": 46, "unit": "%"}, {"measurement": "DNA copy number 4n", "setting": "U87-MG^shp53 [1]; [4]", "value": 29, "unit": "%"}, {"measurement": "DNA copy number 8n", "setting": "U87-MG^shp53 [1]; [4]", "value": 6, "unit": "%"}, {"measurement": "DNA copy number 16n", "setting": "U87-MG^shp53 [1]; [4]", "value": 1, "unit": "%"}, {"measurement": "DNA copy number 32n", "setting": "U87-MG^shp53 [1]; [4]", "value": 0, "unit": "%"}, {"measurement": "DNA copy number 2n", "setting": "U87-MG^shp53 [1]; [5]", "value": 10, "unit": "%"}, {"measurement": "DNA copy number 4n", "setting": "U87-MG^shp53 [1]; [5]", "value": 36, "unit": "%"}, {"measurement": "DNA copy number 8n", "setting": "U87-MG^shp53 [1]; [5]", "value": 29, "unit": "%"}, {"measurement": "DNA copy number 2n", "setting": "U87-MG^shp53 [1]; [6]", "value": 48, "unit": "%"}, {"measurement": "DNA copy number 4n", "setting": "U87-MG^shp53 [1]; [6]", "value": 25, "unit": "%"}, {"measurement": "DNA copy number 8n", "setting": "U87-MG^shp53 [1]; [6]", "value": 6, "unit": "%"}, {"measurement": "DNA copy number 16n", "setting": "U87-MG^shp53 [1]; [6]", "value": 1, "unit": "%"}, {"measurement": "DNA copy number 32n", "setting": "U87-MG^shp53 [1]; [6]", "value": 0, "unit": "%"}, {"measurement": "DNA copy number 2n", "setting": "U87-MG^shp53 [1]; [7]", "value": 2, "unit": "%"}, {"measurement": "DNA copy number 4n", "setting": "U87-MG^shp53 [1]; [7]", "value": 21, "unit": "%"}, {"measurement": "DNA copy number 8n", "setting": "U87-MG^shp53 [1]; [7]", "value": 38, "unit": "%"}, {"measurement": "DNA copy number 2n", "setting": "U87-MG^shp53 [1]; [8]", "value": 40, "unit": "%"}, {"measurement": "DNA copy number 4n", "setting": "U87-MG^shp53 [1]; [8]", "value": 33, "unit": "%"}, {"measurement": "DNA copy number 8n", "setting": "U87-MG^shp53 [1]; [8]", "value": 11, "unit": "%"}, {"measurement": "DNA copy number 16n", "setting": "U87-MG^shp53 [1]; [8]", "value": 3, "unit": "%"}, {"measurement": "DNA copy number 32n", "setting": "U87-MG^shp53 [1]; [8]", "value": 0, "unit": "%"}, {"measurement": "IC50", "setting": "U87-MG^shp53 [2]; Homo sapiens, U87-MG^shp53, AZD1152 alone, 72 hours", "value": "~0.05", "unit": "µM"}, {"measurement": "cytotoxic effect, Observed TTFields + AZD1152", "setting": "U87-MG^shp53 [2]; U87-MG^shp53, AZD1152 25 nM + TTFields 200 kHz 1.6 V/cm RMS", "value": 22.5, "unit": "%"}, {"measurement": "cytotoxic effect, Expected", "setting": "U87-MG^shp53 [2]; U87-MG^shp53, AZD1152 25 nM + TTFields", "value": 42.2, "unit": "%"}, {"measurement": "cytotoxic effect, AZD1152", "setting": "U87-MG^shp53 [2]; U87-MG^shp53, AZD1152 25 nM alone", "value": 71, "unit": "%"}, {"measurement": "cytotoxic effect, Observed TTFields + AZD1152", "setting": "U87-MG^shp53 [2]; U87-MG^shp53, AZD1152 50 nM + TTFields 200 kHz 1.6 V/cm RMS", "value": 10.5, "unit": "%"}, {"measurement": "cytotoxic effect, Expected", "setting": "U87-MG^shp53 [2]; U87-MG^shp53, AZD1152 50 nM + TTFields", "value": 27.7, "unit": "%"}, {"measurement": "cytotoxic effect, AZD1152", "setting": "U87-MG^shp53 [2]; U87-MG^shp53, AZD1152 50 nM alone", "value": 46.5, "unit": "%"}, {"measurement": "cytotoxic effect, Observed TTFields + AZD1152", "setting": "U87-MG^shp53 [2]; U87-MG^shp53, AZD1152 100 nM + TTFields 200 kHz 1.6 V/cm RMS", "value": 4.5, "unit": "%"}, {"measurement": "cytotoxic effect, Expected", "setting": "U87-MG^shp53 [2]; U87-MG^shp53, AZD1152 100 nM + TTFields", "value": 8.9, "unit": "%"}, {"measurement": "cytotoxic effect, AZD1152", "setting": "U87-MG^shp53 [2]; U87-MG^shp53, AZD1152 100 nM alone", "value": 15, "unit": "%"}, {"measurement": "cytotoxic effect of combined treatment of TTFields and AZD1152", "setting": "U87-MG^shp53 [2]; U87-MG^shp53, 2-way ANOVA, p<0.001", "value": "significant enhancement of the cytotoxic effect"}]}]}
